Data reported in the supplement of paper PMC10307832.

Key:
Assay in all cases: relative viability (nuclei count vs DMSO), 5 days (fraction); higher = more cells survive
[1] = compound: COc1cccc2cc(-c3nc([C@H]4CC[C@H](C(=O)O)CC4)n4ncnc(N)c34)[nH]c12 [OSI-027] + C[C@]1(O)C[C@@H](c2nc(-c3ccc4ccc(-c5ccccc5)nc4c3)c3c(N)nccn32)C1 [Linsitinib] (partner 1 µM)
How it was run: (§1)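 Lung cancer cell lines were seeded in 1536-well plates and dosed by pin tool the next day, with either a single drug or a fixed anchor-drug dose combined with five library-drug doses (not always all listed) spaced in √10 steps. Five days later, one step fixed the cells and stained their nuclei (final 0.05% Triton X-100, 1% formaldehyde, 1 ug/ml Hoechst), and nuclei were counted on 4× images. Relative viability is the nuclei count in treated wells divided by the count in vehicle wells, and each value is the median of duplicate plates.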

[2] = compound: CCCS(=O)(=O)Nc1ccc(F)c(C(=O)c2c[nH]c3ncc(-c4ccc(Cl)cc4)cc23)c1F [Vemurafenib] + C[C@]1(O)C[C@@H](c2nc(-c3ccc4ccc(-c5ccccc5)nc4c3)c3c(N)nccn32)C1 [Linsitinib] (partner 1 µM)
How it was run: as §1

[3] = compound: CCCS(=O)(=O)Nc1ccc(F)c(C(=O)c2c[nH]c3ncc(-c4ccc(Cl)cc4)cc23)c1F [Vemurafenib] + Cc1cc(Nc2cc(N3CCN(C)CC3)nc(Sc3ccc(NC(=O)C4CC4)cc3)n2)n[nH]1 [Tozasertib] (partner 0.1 µM)
How it was run: as §1

[4] = compound: Cc1nc(NC(=O)N2CCC[C@H]2C(N)=O)sc1-c1ccnc(C(C)(C)C(F)(F)F)c1 [Alpelisib] + CC(C)C[C@H](NC(=O)[C@H](Cc1ccccc1)NC(=O)c1cnccn1)B(O)O [Bortezomib] (partner 0.002 µM)
How it was run: as §1

Cell Line	relative viability ([1]; first compound 0.01 µM)	relative viability ([1]; first compound 0.03162 µM)	relative viability ([1]; first compound 0.1 µM)	relative viability ([1]; first compound 0.3162 µM)	relative viability ([1]; first compound 1 µM)	relative viability ([2]; first compound 0.03162 µM)	relative viability ([2]; first compound 0.1 µM)	relative viability ([2]; first compound 0.3162 µM)	relative viability ([2]; first compound 1 µM)	relative viability ([3]; first compound 0.03162 µM)	relative viability ([3]; first compound 0.1 µM)	relative viability ([3]; first compound 0.3162 µM)	relative viability ([3]; first compound 1 µM)	relative viability ([4]; first compound 0.04 µM)	relative viability ([4]; first compound 0.1265 µM)	relative viability ([4]; first compound 0.4 µM)	relative viability ([4]; first compound 1.265 µM)	relative viability ([4]; first compound 4 µM)
LXF-289	0.995	1.06	0.972	0.956	0.445	0.877	0.919	0.992	1.04	0.195	0.172	0.149	0.169	1	1.03	1.07	0.902	1.04
NCI-H358	0.676	0.503	0.671	0.376	0.366	0.686	–	1	0.79	0.122	0.107	0.107	0.111	–	–	–	–	–
NCI-H522	–	–	–	–	–	–	–	–	–	0.609	0.471	0.592	0.631	–	–	–	–	–
NCI-H1299	0.969	0.94	0.889	0.773	0.635	1.02	0.958	0.83	0.951	–	–	–	–	1.05	1.08	1.03	1.02	0.966
NCI-H1395	1.18	1.16	0.924	0.857	0.77	0.948	1.02	–	1.13	0.722	0.815	–	0.779	–	–	–	–	–
NCI-H1563	1.13	1.21	1.1	0.929	0.677	1.2	1.11	1.3	1.25	–	–	–	–	0.807	0.85	0.816	0.687	0.803
NCI-H1623	–	–	–	–	–	–	–	–	–	0.409	–	0.452	0.41	–	–	–	–	–
NCI-H1648	–	–	–	–	–	–	–	–	–	0.489	–	0.962	0.477	–	–	–	–	–
NCI-H1650	–	–	–	–	–	–	–	–	–	–	0.277	–	0.272	0.201	0.22	0.185	0.176	0.169
NCI-H1703	0.381	0.788	0.767	0.48	0.56	0.738	0.644	0.637	0.787	–	–	–	–	0.348	0.208	0.231	0.223	0.234
NCI-H1792	0.466	0.237	0.394	0.229	0.22	0.505	0.417	0.484	0.516	–	–	–	–	0.927	0.888	1.05	0.851	0.315
NCI-H1793	1.04	0.875	0.612	0.225	0.188	0.877	–	0.893	0.897	0.288	–	0.323	0.264	–	–	–	–	–
NCI-H1944	1.11	1.14	1.05	0.771	0.836	1.17	0.872	1.33	1.15	0.268	0.201	0.274	0.256	–	–	–	–	–
NCI-H2170	–	–	–	–	–	–	–	–	–	0.637	0.617	0.751	0.679	–	–	–	–	–
NCI-H2342	–	–	–	–	–	–	–	–	–	0.477	0.478	0.629	0.417	–	–	–	–	–
SK-MES-1	1.01	0.956	0.911	0.737	0.538	1.06	0.892	1.03	1.07	0.831	0.915	0.829	0.751	–	–	–	–	–
SW 900	–	–	–	–	–	–	–	–	–	0.455	0.557	0.585	0.435	–	–	–	–	–
